Laboratory results reported in patent US20090117406A1, “CONCENTRATE FOR FILM PRESERVATION” (priority 2006, published 2009).

How the values were obtained:
[1] = test system: Aspergillus niger DSM 1988, Penicillium expansum DSM 1282 and Trichoderma viride DSM 63064; test: Fungicide trial with weathering on plaster test pieces (VdL guideline 06), fungus mix 2; assay type: cell-based; details: rating after 21 days 0 or 1, for mixtures order of ppm follows order of active agents
Method: (§1) The sample to be tested is plaster. The untreated sample is equipped with the cited biocides or single active agents in different concentrations. […] For preparing the samples the plaster is equipped with biocides and from that test pieces are formed. For that purpose for each test piece 7 g plaster are weighed in a small plastic mould and spread evenly. For complete drying the plaster test pieces are stored for three days at room temperature. The prepared test bodies are put in 100 ml tap water each for three days the water being exchanged daily. Then a 15 h phase of drying follows in a circulation air cabinet at 50° C. and 60 circles/min. After three days of equi libration at room temperature the test pieces are sterilised superficially and brought in the biological test. The superficial sterilisation is carried directly before putting them on the nutritive substratum by a exposure to UV radiation on both sides each for 10 minutes under a mercury medium pressure radiator. The evaluations for fungus are carried out on malt extract agar (for example by Fluka). For mix 1 Alternaria alternata DSM 62010 and Ulocladium consortial DSM 6201 is used. For mix 2 Aspergillus niger DSM 1988, Penicillium expansum DSM 1282 and Trichoderma viride DSM 63064 is used. These are used as about 14 days old cultures on inclined agar tubes for producing suspension. For that purpose to each tube 3 ml sterile Ringer's solution are added, and then washed away with a sterile os (this corresponds with a germination index of about 10^8 to 10^9 KBE/ml [KBE=(Kolonie bildende Einheiten) units forming colonies]). […] The nutritive substratum with the put-on test pieces is injected with one of the listed fungus mixtures and incubated at room temperature. After 7, 14 and 21 days the test pieces are evaluated with respect to the fungus growth according to the following rating: 00=sample surface without fouling, with inhibitory aureole around test piece 0=sample surface without fouling, without inhibitory aureole around test piece […] […]

[2] = test system: Alternaria alternata DSM 62010 and Ulocladium consortial DSM 6201; test: Fungicide trial with weathering on plaster test pieces (VdL guideline 06), fungus mix 1; assay type: cell-based; details: rating after 21 days 0 or 1, for mixtures order of ppm follows order of active agents
Method: as §1

Row | SMILES | ppm a.i. in plaster dosed additionally (minimal ppm concentration as fungus growth is obstructed clearly) [1] | ppm a.i. in plaster dosed additionally (minimal ppm concentration as fungus growth is obstructed clearly) [2]
1 | CCCC1COC(Cn2cncn2)(c2ccc(Cl)cc2Cl)O1 (stereo not drawn) [Propiconazol, 1-[[2-(2,4-dichlorphenyl)-4-propyl-1,3-dioxolane-2-yl]methyl] 1 H-1,2,4-triazol] | >2000(#) ppm | 2000 ppm
2 | CCCCCCCCn1sccc1=O [OIT, 2-octyl-2H-isothiazole-3-one] | >500(#) ppm | 200 ppm
3 | N#Cc1c(Cl)c(Cl)c(Cl)c(C#N)c1Cl [CTL, 1,3-dicyano-2,4,5,6-tetrachlorbenzole] | 800 ppm | 400 ppm
